Here are results for 35 compounds from BindingDB's records for patent US20240270732 (Chengdu Biobel Biotechnology Co., 2024).

The structures appear in SMILES notation.

The experiment deals with T1, Receptor-interacting serine/threonine-protein kinase 1 (Homo sapiens, UniProt Q13546).
T1 sequence (Q13546 whole entry): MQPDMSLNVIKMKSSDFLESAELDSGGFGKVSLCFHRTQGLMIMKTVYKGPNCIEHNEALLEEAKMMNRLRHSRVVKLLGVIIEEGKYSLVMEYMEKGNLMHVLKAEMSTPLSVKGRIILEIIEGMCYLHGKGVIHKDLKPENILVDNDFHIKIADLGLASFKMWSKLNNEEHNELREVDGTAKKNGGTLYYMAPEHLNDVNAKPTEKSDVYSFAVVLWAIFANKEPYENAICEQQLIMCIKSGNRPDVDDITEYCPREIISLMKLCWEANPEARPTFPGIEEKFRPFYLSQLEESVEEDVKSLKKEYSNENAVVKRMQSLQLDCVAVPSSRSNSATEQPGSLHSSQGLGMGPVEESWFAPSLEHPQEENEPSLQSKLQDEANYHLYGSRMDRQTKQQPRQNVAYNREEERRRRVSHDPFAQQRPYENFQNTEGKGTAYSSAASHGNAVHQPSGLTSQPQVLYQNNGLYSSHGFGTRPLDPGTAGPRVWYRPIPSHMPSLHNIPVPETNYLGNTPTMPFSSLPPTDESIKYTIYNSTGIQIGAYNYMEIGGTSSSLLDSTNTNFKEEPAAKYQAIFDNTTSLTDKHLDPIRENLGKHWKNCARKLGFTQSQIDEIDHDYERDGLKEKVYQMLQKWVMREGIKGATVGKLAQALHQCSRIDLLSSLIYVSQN
In words: Inhibitory Activity Assay. As for the experimental part: The compound of the present invention and the control compound were dissolved in the assay buffer (50 mM Hepes pH 7.5, 50 mM NaCl, 30 mM MgCl2, 1 mM DTT, 0.02% CHAPS, 0.5 mg/mL BSA), and diluted in a ratio of 1:1.5 using a 22-point titration (high concentration 2 μM), and then added to a 384-well plate. […] After completion of the reaction, 5 μL of ADP-Glo reagent containing 0.02% CHAPS was added to each well and incubated at room temperature for 1 h to terminate the kinase reaction and use up all remaining ATP. Then, 5 μL of ADP-Glo detection solution containing 0.02% CHAPS was added to each well and incubated at room temperature for 30 min to measure the emittance intensity.
`C[C@H]1Oc2ccc(CCCN3CCN(CCCc4ccc5c(c4)N(C)C(=O)[C@@H](NC(=O)c4n[nH]c(Cc6ccccc6)n4)[C@@H](C)O5)CC3)cc2N(C)C(=O)[C@H]1NC(=O)c1n[nH]c(Cc2ccccc2)n1` [US20240270732, Compound I-124] showed a half-inhibitory concentration (IC50) of 4.84 nM. In other words, the single-digit nanomolar range.

In turn, `C#Cc1ccc2c(c1)N(C)C(=O)[C@@H](NC(=O)c1ncn(Cc3ccccc3)n1)[C@@H](C)O2` [US20240270732, Compound I-120] gave an IC50 of 10.8 nM.

`C[C@H]1Oc2ccc(C#CCN3CCN(CC#Cc4ccc5c(c4)N(C)C(=O)[C@@H](NC(=O)c4cn(Cc6ccccc6)cn4)CO5)CC3)cc2N(C)C(=O)[C@H]1NC(=O)c1ncn(Cc2ccccc2)n1` [US20240270732, Compound I-28]: the IC50 worked out at 4.59 nM.

Compound `C#CCN1CCN(CC#Cc2ccc3c(c2)N(C)C(=O)[C@@H](NC(=O)c2ncn(Cc4cccc(N)c4)n2)[C@@H](C)O3)CC1` [US20240270732, Compound I-77] yielded an IC50 of 29 nM.

Turning to `C#CCN1CCN(CC#Cc2ccc3c(c2)N(C)C(=O)[C@@H](NC(=O)c2nnn(Cc4ccccc4)n2)CO3)CC1` [US20240270732, Compound I-57], the midpoint of inhibition, the IC50, lay at 8.09 nM.

Consider `C[C@H]1Oc2ccc(C#CCN3CCN(CC#Cc4ccc5c(c4)N(C)C(=O)[C@@H](NC(=O)c4nnn(Cc6ccccc6)n4)[C@@H](C)O5)CC3)cc2N(C)C(=O)[C@H]1NC(=O)c1n[nH]c(Cc2ccccc2)n1` [US20240270732, Compound I-6], for which the IC50 is 11.2 nM.

The compound `C#CCN1CCN(CC#Cc2ccc3c(c2)N(C)C(=O)[C@@H](NC(=O)c2nnn(Cc4ccccc4)n2)[C@@H](C)O3)CC1` [US20240270732, Compound I-55] showed an IC50 of 8.91 nM. The IC50 values of the last two compounds are within 1.5-fold of each other.

In turn, `CN1C(=O)[C@@H](NC(=O)c2n[nH]c(Cc3ccccc3)n2)COc2ccc(C#CCN3CCN(CC#Cc4ccc5c(c4)N(C)C(=O)[C@@H](NC(=O)c4ncn(Cc6ccccc6)n4)CO5)CC3)cc21` [US20240270732, Compound I-13] yielded a 50% inhibitory concentration (IC50) of 3.22 nM.

The compound `C#CCN1CCN(CC#Cc2ccc3c(c2)N(C)C(=O)[C@@H](NC(=O)c2ncn(Cc4ccccc4)n2)CO3)CC1` [US20240270732, Compound I-29] gave an IC50 of 2.88 nM.

In turn, `C[C@H]1Oc2ccc(C#CCCCCC#Cc3ccc4c(c3)N(C)C(=O)[C@@H](NC(=O)c3n[nH]c(Cc5ccccc5)n3)[C@@H](C)O4)cc2N(C)C(=O)[C@H]1NC(=O)c1n[nH]c(Cc2ccccc2)n1` [US20240270732, Compound I-79] displayed a half-maximal inhibitory concentration (IC50) of 10.5 nM.

Compound `C[C@H]1Oc2ccc(C#CCN3CCN(CC#Cc4ccc5c(c4)N(C)C(=O)[C@@H](NC(=O)c4n[nH]c(Cc6ccccc6)n4)CO5)CC3)cc2N(C)C(=O)[C@H]1NC(=O)c1n[nH]c(Cc2ccccc2)n1` [US20240270732, Compound I-3] showed an IC50 of 7.22 nM. This IC50 and that of the compound before are within 1.5-fold of each other.

The compound `C[C@H]1Oc2ccc(C#CCCO)cc2N(C)C(=O)[C@H]1NC(=O)c1n[nH]c(Cc2ccccc2)n1` [US20240270732, Compound I-105] gave a half-inhibitory concentration (IC50) of 4.85 nM.

The compound `C[C@H]1Oc2ccc(C#CCN3CCN(CC#Cc4ccc5c(c4)N(C)C(=O)[C@@H](NC(=O)c4nnn(Cc6ccccc6)n4)CO5)CC3)cc2N(C)C(=O)[C@H]1NC(=O)c1n[nH]c(Cc2ccccc2)n1` [US20240270732, Compound I-7] had an IC50 of 7.81 nM. This IC50 is about 1.6-fold higher than that of the compound before.

Regarding `C#CCN1CCN(CC#Cc2ccc3c(c2)NC(=O)[C@@H](NC(=O)c2n[nH]c(Cc4ccccc4)n2)CO3)CC1` [US20240270732, Compound I-20], 9.44 nM corresponded to half-maximal inhibition (IC50).

`C[C@H]1Oc2ccc(C#Cc3cccnc3)cc2N(C)C(=O)[C@H]1NC(=O)c1n[nH]c(Cc2ccccc2)n1` [US20240270732, Compound I-111] gave a half-maximal inhibitory concentration (IC50) of 6.69 nM. This IC50 and that of the compound before are within 1.5-fold of each other.

`C[C@H]1Oc2ccc(C#CCN3CCN(CC#Cc4ccc5c(c4)N(C)C(=O)[C@@H](NC(=O)c4ncn(Cc6ccccc6)n4)CO5)CC3)cc2N(C)C(=O)[C@H]1NC(=O)c1cn(Cc2ccccc2)cn1` [US20240270732, Compound I-33] displayed an IC50 of 3.54 nM.

Turning to `C[C@H]1Oc2ccc(C#CCN3CCN(CC#Cc4ccc5c(c4)N(C)C(=O)[C@@H](NC(=O)c4cn(Cc6ccccc6)cn4)CO5)CC3)cc2N(C)C(=O)[C@H]1NC(=O)c1n[nH]c(Cc2ccccc2)n1` [US20240270732, Compound I-9], the IC50 amounted to 8.72 nM. Compared with the last compound, the IC50 is about 2.5-fold higher.

The compound `C[C@H]1Oc2ccc(C#CCN3CCN(CC#Cc4ccc5c(c4)N(C)C(=O)[C@@H](NC(=O)c4ncn(Cc6cccc(N)c6)n4)[C@@H](C)O5)CC3)cc2N(C)C(=O)[C@H]1NC(=O)c1ncn(Cc2cccc(N)c2)n1` [US20240270732, Compound I-78] had an IC50 of 23.1 nM.

With `C#CCN1CCN(CC#Cc2ccc3c(c2)N(C)C(=O)[C@@H](NC(=O)c2n[nH]c(Cc4ccccc4)n2)[C@H](C)O3)CC1` [US20240270732, Compound I-18], the IC50 is 57.7 nM.

With `COCCOCCOCCOCCOCC#Cc1ccc2c(c1)N(C)C(=O)[C@@H](NC(=O)c1ncn(Cc3ccccc3)n1)CO2` [US20240270732, Compound I-102], the IC50 was 1.88 nM. Compared with the last compound, the IC50 is about 31-fold lower.

`C#CCOCCOCCOCCOCCOCC#Cc1ccc2c(c1)N(C)C(=O)[C@@H](NC(=O)c1ncn(Cc3ccccc3)n1)CO2` [US20240270732, Compound I-85-2] displayed an IC50 of 6.63 nM. Compared with the last compound, the IC50 is about 3.5-fold higher.

For the compound `C[C@H]1Oc2ccc(C#CCN3CCN(CC#Cc4ccc5c(c4)N(C)C(=O)[C@@H](NC(=O)c4n[nH]c(Cc6cccc(N)c6)n4)[C@@H](C)O5)CC3)cc2N(C)C(=O)[C@H]1NC(=O)c1n[nH]c(Cc2cccc(N)c2)n1` [US20240270732, Compound I-72], the IC50 came to 22.1 nM. This IC50 is about 3.3-fold higher than that of the compound before.

`C#CCN1CCN(CC#Cc2ccc3c(c2)N(C)C(=O)[C@@H](NC(=O)c2n[nH]c(Cc4ccccc4)n2)CO3)CC1` [US20240270732, Compound I-10] showed an IC50 of 3.21 nM.

`CN1C(=O)[C@@H](NC(=O)c2n[nH]c(Cc3ccccc3)n2)COc2ccc(C#CCOCCOCCOCCOCCOCC#CC#CCOCCOCCOCCOCCOCC#Cc3ccc4c(c3)N(C)C(=O)[C@@H](NC(=O)c3n[nH]c(Cc5ccccc5)n3)CO4)cc21` [US20240270732, Compound I-88] registered an IC50 of 6.58 nM.

Take `C[C@H]1Oc2ccc(C#CCN3CCN(CC#Cc4ccc5c(c4)N(C)C(=O)[C@@H](NC(=O)c4ncn(Cc6ccccc6)n4)CO5)CC3)cc2N(C)C(=O)[C@H]1NC(=O)c1ncn(Cc2ccccc2)n1` [US20240270732, Compound I-31]: half-maximal inhibition (IC50) required 2.95 nM.

Turning to `C[C@H]1Oc2ccc(C#CCN3CCN(CC#CC#CCN4CCN(CC#Cc5ccc6c(c5)N(C)C(=O)[C@@H](NC(=O)c5ncn(Cc7ccccc7)n5)[C@@H](C)O6)CC4)CC3)cc2N(C)C(=O)[C@H]1NC(=O)c1ncn(Cc2ccccc2)n1` [US20240270732, Compound I-93], the IC50 worked out at 5.73 nM.

Turning to `C#CCN1CCN(CC#Cc2ccc3c(c2)NC(=O)[C@@H](NC(=O)c2n[nH]c(Cc4ccccc4)n2)[C@@H](C)O3)CC1` [US20240270732, Compound I-16], the concentration for half-maximal inhibition (IC50) came out at 5.59 nM.

On to `C#CCN1CCN(CC#Cc2ccc3c(c2)N(C)C(=O)[C@@H](NC(=O)c2nnc(Cc4ccccc4)o2)[C@@H](C)O3)CC1` [US20240270732, Compound I-49], for which the midpoint of inhibition, the IC50, lay at 16.2 nM.

With `C[C@H]1Oc2ccc(C#CCN3CCN(CC#Cc4ccc5c(c4)N(C)C(=O)[C@@H](NC(=O)c4ncn(Cc6ccccc6)n4)[C@@H](C)O5)CC3)cc2N(C)C(=O)[C@H]1NC(=O)c1cn(Cc2ccccc2)cn1` [US20240270732, Compound I-27], the IC50 was 4 nM.

`CN1C(=O)[C@@H](NC(=O)c2ncn(Cc3ccccc3)n2)COc2ccc(C#CCN3CCN(CC#CC#CCN4CCN(CC#Cc5ccc6c(c5)N(C)C(=O)[C@@H](NC(=O)c5ncn(Cc7ccccc7)n5)CO6)CC4)CC3)cc21` [US20240270732, Compound I-94] returned an IC50 of 6.16 nM.

On to `CN(CCCC#Cc1ccc2c(c1)N(C)C(=O)[C@@H](NC(=O)c1n[nH]c(Cc3ccccc3)n1)CO2)CCCC#Cc1ccc2c(c1)N(C)C(=O)[C@@H](NC(=O)c1n[nH]c(Cc3ccccc3)n1)CO2` [US20240270732, Compound I-96], for which inhibition was half-maximal at 18.5 nM (IC50).

The compound `C#CCN1CCN(CC#Cc2ccc3c(c2)N(C)C(=O)[C@@H](NC(=O)c2cn(Cc4ccccc4)nn2)[C@@H](C)O3)CC1` [US20240270732, Compound I-53] gave an IC50 of 15.1 nM.

Regarding `C[C@H]1Oc2ccc(C#CCOCCOCCOCCOCCOCC#Cc3ccc4c(c3)N(C)C(=O)[C@@H](NC(=O)c3ncn(Cc5ccccc5)n3)CO4)cc2N(C)C(=O)[C@H]1NC(=O)c1ncn(Cc2ccccc2)n1` [US20240270732, Compound I-86], the IC50 came to 7.91 nM.

As for `C[C@H]1Oc2ccc(C#CCN3CCN(CC#Cc4ccc5c(c4)N(C)C(=O)[C@@H](NC(=O)c4n[nH]c(Cc6cccc(O)c6)n4)[C@@H](C)O5)CC3)cc2N(C)C(=O)[C@H]1NC(=O)c1n[nH]c(Cc2cccc(O)c2)n1` [US20240270732, Compound I-70], 18.2 nM corresponded to half-maximal inhibition (IC50).

With `COCCOCCOCCOCCOCC#Cc1ccc2c(c1)N(C)C(=O)[C@@H](NC(=O)c1n[nH]c(Cc3ccccc3)n1)CO2` [US20240270732, Compound I-100], the IC50 was 1.47 nM.
